Measurements published in patent US20220339135A1, “COMPOSITIONS AND METHODS FOR MODULATING AN INFLAMMATORY RESPONSE” (Enzychem Lifesciences Corporation, priority 2019, published 2022).

Columns and labels:
[1] = system: ADORA2A on the surface of HaCaT cells; assay: IMQ-induced ADORA2A trafficking, confocal microscopy; format: cell-based; details: IMQ 5 μg/ml after PLAG 100 μg/ml 1 hour
Method: HaCaT cells were divided into two groups: 1) IMQ treated group and 2) IMQ/PLAG treated group. For IMQ treated group, cells were stimulated with IMQ (5 μg/ml) for 0, 2.5, 5, 7.5, 10, 15, 30, 60, 120 minutes. For IMQ/PLAG treated group, cells were pre-incubated with PLAG (100 μg/ml) for 1 hour and then stimulated with IMQ (5 μg/ml) for 0, 2.5, 5, 7.5, 10, 15, 30, 60, 120 minutes. (A) To detect ADORA2A on the membrane surface, cells were fixed with 2% paraformaldehyde (Sigma-Aldrich) and were blocked with PBS containing 1% BSA (Gibco, Waltham, Mass., USA). They were incubated with rabbit anti-ADORA2A antibody (Thermo) and Alexa488 conjugated anti-rabbit IgG (Invitrogen) without permeabilization. (B) To detect intracellular ROS, cells were treated with FITC conjugated-CM-H2DCFDA (Invitrogen, Carlsbad, Calif., USA) for 30 min before PLAG treating. For confocal microscopy analysis, cells were washed with PBS and mounted in DAPI-containing fluorescence microscopy mounting medium (Invitrogen). Samples were analyzed with a laser scanning confocal microscope (Carl Zeiss, Oberkochen, Germany).

[2] = system: gemcitabine-induced neutrophil extravasation; assay: Gemcitabine-induced neutropenia mice model; format: in vivo
Method: Male BALB/c mice were randomly divided into 3 groups; normal control group (n=5), gemcitabine only group (n=5) and gemcitabine with PLAG group (n=5). The mice were intraperitoneally (i.p.) injected with 50 mg/kg gemcitabine to induce neutropenia. PLAG was diluted with phosphate-buffered saline (PBS) and then orally administrated at a dose of 50 or 250 mg/kg/day. The normal control group was administered PBS only during the experiment. The whole blood was collected from the orbital sinuses using capillary tubes (Kimble Chase Life Science and Research Products LLC, FL, USA) and collection tubes containing K3E-K3EDTA (Greiner Bio-One International, Germany). To obtain peritoneal cells, 5 ml of cold PBS was injected to the left side of the peritoneal wall using a 5 mL syringe, and the fluid was aspirated from the peritoneum. The collected cells were counted by complete blood count (CBC) analysis using Mindray BC-5300 auto-hematology analyzer (Shenzhen Mindray Biomedical Electronics, China). To establish a 4T1 tumor-bearing mice model, the murine 4T1 mammary carcinoma cells (1×10^5) were subcutaneously injected on the right side of the abdomen. On the 10th day after tumor injection, the mice were intraperitoneally (i.p.) injected with 50 mg/kg gemcitabine, and the next day the whole blood was collected from the orbital sinuses as mentioned above before sacrificing the animals to obtain different organs of the body for RT-PCR.
PLAG inhibits gemcitabine-induced neutrophil extravasation into the peritoneum by down-regulating the expression of adhesion molecules in normal BALB/c mice. Male BALB/c mice of 8-10 weeks of age were orally administrated with 50 or 250 mg/kg of PLAG and then were intraperitoneally injected with 50 mg/kg gemcitabine. After 24 h, blood samples were collected by retro-orbital bleeding, and the number of blood neutrophils was determined by CBC analysis. Each group contains five mice. The population of blood neutrophils was analyzed by flow cytometry. Red cell-lysed whole blood was stained with FITC-conjugated anti-Ly6G and PE-Cy7-conjugated anti-CD11b antibodies to determine the circulating neutrophil population. Ly6G+/CD11b+ cells were further stained with APC-conjugated anti-L-selectin and APC-conjugated anti-LFA-1 antibodies and were analyzed by flow cytometry to determine the expression of adhesion molecules.
The mice were intraperitoneally (i.p.) injected with 50 mg/kg gemcitabine to induce neutropenia. PLAG was diluted with phosphate-buffered saline (PBS) and then orally administrated at a dose of 50 or 250 mg/kg/day. The normal control group was administered PBS only during the experiment. At 15 h after gemcitabine treatment, the whole blood was collected from the orbital sinuses using capillary tubes (Kimble Chase Life Science and Research Products LLC, FL, USA) and collection tubes containing K3E-K3EDTA (Greiner Bio-One International, Kremsmünster, Austria). To obtain peritoneal cells, 5 ml of cold PBS was injected to the left side of the peritoneal wall using a 5 mL syringe, and the fluid was aspirated from the peritoneum. The collected cells were counted by complete blood count (CBC) analysis using Mindray BC-5300 auto-hematology analyzer (Shenzhen Mindray Biomedical Electronics, Guangdong Sheng, China).
To establish a 4T1 tumor-bearing mice model, the murine 4T1 mammary carcinoma cells (1×105) were subcutaneously injected on the right side of the abdomen. On the 10th day after tumor injection, the mice were intraperitoneally (i.p.) injected with 50 mg/kg gemcitabine, and the next day the whole blood was collected from the orbital sinuses as mentioned above before sacrificing the animals to obtain different organs of the body.

Compound: CCCCC/C=C\C/C=C\CCCCCCCC(=O)OC(COC(C)=O)COC(=O)CCCCCCCCCCCCCCC (racemic) [PLAG, 1-palmitoyl-2-linoleoyl-3-acetylglycerol]
- GPCR (ADORA2A) returns to its membrane [1]: 10 min
- GPCR (ADORA2A) trafficking starts [1]: 2.5 min
- neutrophil counts in the peritoneum ([2]; 15 hours after gemcitabine): effectively decreases
- gemcitabine-induced cell surface expression of L-selectin and LFA-1 ([2]; Gr-1+/CD11b+ cells): effectively inhibited
- circulating neutrophil counts ([2]; PLAG 50 and 250 mg/kg oral, 15 hours after gemcitabine, dose-dependent): restored circulating neutrophils to an almost normal range
- population of Gr-1+ and CD11b+ neutrophils in the blood ([2]; gemcitabine 50 mg/kg i.p.): maintained
